# Measurements as given in ChEMBL document CHEMBL3400005, “Thermodynamic equilibrium solubility measurements in simulated fluids by 96-well plate method in early drug discovery” (Bioorg Med Chem Lett, 2015).
# What was measured:
# physchem [1] = details: pH 1.2
# physchem [2] = details: pH 7.4
# physchem [3] = details: pH 6.8
# physchem [4] = details: pH 6.8; remark: listed apart in the source
# physchem [5] = details: pH 1.2; remark: listed apart in the source
# physchem [6] = test: physchem
# physchem [7] = details: pH 7.4; remark: listed apart in the source
# physchem [8] = test: physchem; remark: listed apart in the source
# physchem [9] = test: physchem; remark: listed apart in the source
Compound,solubility thermodynamic at 24 h (physchem [1]; simulated gi fluid),solubility thermodynamic at 4 h (physchem [2]; buffer),solubility thermodynamic at 24 h (physchem [3]; simulated gi fluid),solubility thermodynamic at 4 h (physchem [4]; simulated gi fluid),solubility thermodynamic at 4 h (physchem [5]; simulated gi fluid),solubility thermodynamic at 4 h (physchem [2]; PBS),solubility thermodynamic at 4 h (physchem [6]; water),solubility thermodynamic at 4 h (physchem [4]; simulated intestinal fluid),solubility thermodynamic at 4 h (physchem [5]; simulated gastric fluid),solubility thermodynamic at 24 h (physchem [1]; simulated gastric fluid),solubility thermodynamic at 24 h (physchem [7]; PBS),solubility thermodynamic at 24 h (physchem [8]; water),solubility thermodynamic at 24 h (physchem [3]; simulated intestinal fluid),solubility thermodynamic (physchem [9]),solubility thermodynamic at 24 h (physchem [7]; buffer),solubility thermodynamic at 24 h (physchem [8]; buffer),solubility thermodynamic at 4 h (physchem [6]; buffer)
CC(=O)Oc1ccccc1C(=O)O [ASPIRIN],1450 µM,5010 µM,3.72 µM,2.75 µM,3310 µM,–,–,–,–,–,–,–,–,–,–,–,–
COc1c2occc2c(OC)c2c(=O)cc(C)oc12 [KHELLIN],–,–,–,–,–,77.6 µM,77.6 µM,30.9 µM,30.9 µM,97.7 µM,72.4 µM,100 µM,58.9 µM,97.7 µM,–,–,–
CN1C(=N)N(C)/C(=C/c2c[nH]c3ccccc23)C1=O [APLYSINOPSIN],–,–,–,–,–,56.2 µM,31.6 µM,0.389 µM,79.4 µM,–,–,–,–,–,–,–,–
CC(C(=O)[O-])c1ccc(-c2ccccc2)c(F)c1.[Na+] (configuration not stated),–,–,–,–,–,162 µM,331 µM,4.07 µM,33.1 µM,–,–,–,–,–,–,–,–
Cc1cnc(NC(=O)C2=C(O)c3ccccc3S(=O)(=O)N2C)s1 [MELOXICAM],0.0407 µM,35.5 µM,28.8 µM,22.9 µM,1.41 µM,–,–,–,–,–,–,–,–,2.29 µM,21.9 µM,11 µM,11.5 µM
CCCCCCCCCCCC1=C(O)C(=O)C=C(O)C1=O [EMBELIN],–,–,–,–,–,1.7 µM,1.7 µM,1.7 µM,1.7 µM,–,–,–,–,1.02 µM,–,–,–
C=C(C)[C@@H](CC=C(C)C)C[C@@]12C[C@@H](CC=C(C)C)C(C)(C)[C@@](CC=C(C)C)(C(=O)C(C(=O)c3ccc(O)c(O)c3)=C1O)C2=O [GARCINOL],–,–,–,–,–,1.66 µM,1.66 µM,6.61 µM,0.832 µM,–,–,–,–,–,–,–,–
C[C@@H]1[C@H](O)[C@@H](C)/C=C/C=C/C=C/C=C/C=C/C=C/C=C/[C@H](O[C@@H]2O[C@H](C)[C@@H](O)[C@H](N)[C@@H]2O)C[C@@H]2O[C@](O)(C[C@@H](O)C[C@@H](O)[C@H](O)CC[C@@H](O)C[C@@H](O)CC(=O)O[C@H]1C)C[C@H](O)[C@H]2C(=O)O [AMPHOTERICIN B],–,–,–,–,–,21.9 µM,21.9 µM,4.37 µM,13.5 µM,11.2 µM,26.3 µM,22.9 µM,3.8 µM,81.3 µM,–,–,–

# Next, values leading:
solubility thermodynamic at 24 h (physchem [1]; simulated gi fluid),solubility thermodynamic at 4 h (physchem [2]; buffer),solubility thermodynamic at 24 h (physchem [3]; simulated gi fluid),solubility thermodynamic at 4 h (physchem [4]; simulated gi fluid),solubility thermodynamic at 4 h (physchem [5]; simulated gi fluid),solubility thermodynamic at 4 h (physchem [2]; PBS),solubility thermodynamic at 4 h (physchem [6]; water),solubility thermodynamic at 4 h (physchem [4]; simulated intestinal fluid),solubility thermodynamic at 4 h (physchem [5]; simulated gastric fluid),solubility thermodynamic at 24 h (physchem [1]; simulated gastric fluid),solubility thermodynamic at 24 h (physchem [7]; PBS),solubility thermodynamic at 24 h (physchem [8]; water),solubility thermodynamic at 24 h (physchem [3]; simulated intestinal fluid),solubility thermodynamic (physchem [9]),solubility thermodynamic at 24 h (physchem [7]; buffer),solubility thermodynamic at 24 h (physchem [8]; buffer),solubility thermodynamic at 4 h (physchem [6]; buffer),Compound
–,–,–,–,–,589 µM,589 µM,288 µM,589 µM,–,–,–,–,–,–,–,–,NNC(=O)c1ccncc1 [ISONIAZID]
–,–,–,–,–,0.339 µM,0.339 µM,1.7 µM,1.7 µM,0.178 µM,0.105 µM,0.148 µM,0.692 µM,–,–,–,–,CC(C)(C#N)c1cc(Cn2cncn2)cc(C(C)(C)C#N)c1 [ANASTROZOLE]
–,–,–,–,–,7.76 µM,3.89 µM,1.95 µM,38.9 µM,40.7 µM,6.46 µM,29.5 µM,2.29 µM,–,–,–,–,CCCc1nc2c(C)cc(-c3nc4ccccc4n3C)cc2n1Cc1ccc(-c2ccccc2C(=O)O)cc1
–,–,–,–,–,0.2 µM,0.2 µM,1 µM,1 µM,0.2 µM,0.01 µM,0.0195 µM,0.407 µM,0.102 µM,–,–,–,CCC(=O)O[C@]1(C(=O)SCF)[C@H](C)C[C@H]2[C@@H]3C[C@H](F)C4=CC(=O)C=C[C@]4(C)[C@@]3(F)[C@@H](O)C[C@@]21C [FLUTICASONE PROPIONATE]
–,–,–,–,–,28.2 µM,70.8 µM,70.8 µM,43.7 µM,–,–,–,–,14.1 µM,–,–,–,O=C(/C=C/C=C/c1ccc2c(c1)OCO2)N1CCCCC1 [PIPERINE]
–,–,–,–,–,12.3 µM,24.5 µM,6.17 µM,6.17 µM,–,–,–,–,–,–,–,–,CC(=O)N[C@@H](CS)C(=O)O [ACETYLCYSTEINE]
